Test results from publication PMC8434491, “Targeting the Integrated Stress Response Kinase GCN2 to Modulate Retroviral Integration” (Molecules, 2021).
Where a name gives a salt, the structure may show the parent alone. Read-outs that look alike come from different tables or passages of the source. Each block holds one molecule with its values, some of them ahead of it.

Assays:
IN–GCN2 interaction = target: T1, IN–GCN2 interaction (UniProt P04585+Q9P2K8); test: IN–GCN2 interaction assay (AlphaLISA); format: binding, HIV-1 IN / human GCN2; conditions: for effect on the IN–GCN2 interaction: A-92: over a wide concentration range, MK-2048: nanomolar or low micromolar ranges
T1 construct: expressed as a truncated version (192-1024) in fusion after a glutathione S-transferase tag; Recombinant full-length IN was expressed in E. coli BL21 pLys; purchased SignalChem (GCN2); IN made in house in E. coli BL21 pLys E12-11G; host or cells: E. coli BL21 pLys (IN)
From the text: We developed an in vitro plate-based assay to monitor the interaction between GCN2 and IN using the AlphaLISA technology (Figure 1). Taking advantage of the tags present on each recombinant protein (6xHis for IN prepared “in-house”, and GST for GCN2 commercially available), we used specific beads that fluoresce only when they are in close proximity (<200 nm). The signal obtained (light count) is directly proportional to the binding of IN to GCN2 (homogenous solution assay at steady state).
IN–GCN2 interaction assay. Protein–protein interactions were monitored using the AlphaLISA technology (Perkin Elmer) taking advantage of the GST and 6xHis tags of GCN2 and IN, respectively. Accordingly, AlphaScreen GSH Donor beads and AlphaLISA Nickel Acceptor beads were used (Perkin Elmer). Reactions were carried out at room temperature by incubating GCN2 with drugs or DMSO for 5 min before addition of AlphaLISA Nickel Acceptor beads. After 5 min, IN was added to the reaction mixture and incubated for 20 min before adding the AlphaScreen GSH Donor beads. This interaction assay was performed in conditions similar to the in vitro phosphorylation assay, already described, using 25 nM GCN2 and 700 nM (except indicated otherwise) in a reaction buffer containing 50 mM Tris-HCl pH 7.5, 40 mM NaCl, 1 mM dithiothreitol (DTT), 0.05% Tween 20, 0.1% bovine serum albumin (BSA), 10 µg/mL of each donor and acceptor beads. Alpha signal was measured using an EnSight plate reader (Perkin Elmer) 120 min after the addition of the latest component of the reaction (unless indicated otherwise).

GCN2 = target: T2, GCN2 (Homo sapiens, UniProt Q9P2K8); test: In vitro phosphorylation assay: GCN2 activation (auto-phosphorylation); format: biochemical; conditions: for decrease in GCN2 auto-phosphorylation: single dose of 100 µM, compared to DMSO
T2 construct: expressed as a truncated version (192-1024) in fusion after a glutathione S-transferase tag; purchased SignalChem E12-11G
T2 sequence (Q9P2K8 192-1024): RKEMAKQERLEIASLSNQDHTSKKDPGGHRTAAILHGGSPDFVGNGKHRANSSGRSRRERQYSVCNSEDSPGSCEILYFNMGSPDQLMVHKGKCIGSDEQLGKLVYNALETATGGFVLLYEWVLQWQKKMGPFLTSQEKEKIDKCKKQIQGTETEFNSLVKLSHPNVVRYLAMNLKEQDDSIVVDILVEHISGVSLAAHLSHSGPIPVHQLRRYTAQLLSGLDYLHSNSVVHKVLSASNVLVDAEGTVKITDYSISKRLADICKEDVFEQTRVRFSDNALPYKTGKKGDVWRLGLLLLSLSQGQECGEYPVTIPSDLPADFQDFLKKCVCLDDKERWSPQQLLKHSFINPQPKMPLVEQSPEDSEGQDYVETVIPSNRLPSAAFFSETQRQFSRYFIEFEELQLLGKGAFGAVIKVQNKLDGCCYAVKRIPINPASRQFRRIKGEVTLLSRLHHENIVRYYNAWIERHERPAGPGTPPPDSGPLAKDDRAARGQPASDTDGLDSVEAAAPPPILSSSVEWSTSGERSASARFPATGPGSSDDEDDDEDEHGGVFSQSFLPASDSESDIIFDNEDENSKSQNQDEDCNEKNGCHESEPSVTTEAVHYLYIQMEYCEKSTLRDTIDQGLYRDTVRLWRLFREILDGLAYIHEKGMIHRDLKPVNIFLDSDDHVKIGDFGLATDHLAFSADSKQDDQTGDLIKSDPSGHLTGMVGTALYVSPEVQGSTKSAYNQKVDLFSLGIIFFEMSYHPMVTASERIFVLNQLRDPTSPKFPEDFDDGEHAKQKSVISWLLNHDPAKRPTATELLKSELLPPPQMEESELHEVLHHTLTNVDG
From the text: Enzymes. GCN2 was purchased from SignalChem (EIF2AK4, cat. #E12-11G). This human recombinant protein was expressed as a truncated version (192-1024) in fusion after a glutathione S-transferase tag (approximate molecular weight of 132 kDa). Recombinant full-length IN was expressed in E. coli BL21 pLys (IPTG induction) and purified on a nickel chelating column, as described. Integrity and purity were checked by direct Coomassie coloration of elution fractions on SDS-PAGE before dialysis to remove imidazole. Protein concentration was determined using a NanoDrop 2000 with the following parameters: molecular weight: 34 kDa, extinction coefficient ϵ = 50,460 mol^−1cm^−1L.
(§1) In vitro phosphorylation assay. Phosphorylation of IN (700 nM) was carried out using 25 nM of GCN2 in a reaction buffer containing 10 mM Tris-HCl pH 7.5, 50 mM NaCl, 15 mM MgCl2, 7.5 mM MnCl2, 10 mM DTT, 0.005% Nonidet P-40, 100 µM ATP, 50 µCi/µL of [γ-^32P]-ATP (3000 Ci/mmole, Perkin Elmer). Reactions (20 µL) were stopped after a 60 min incubation at 30 °C by adding 10 µL of loading buffer [80 mM Tris-HCl pH 6.8, 100 mM DTT, 10% glycerol, 1% sodium dodecyl sulfate (SDS) and 0.05% bromophenol blue]. Samples were then loaded onto a 10% denaturating SDS-PAGE. After protein separation (120 V for 120 min) the gel was stained using Coomassie Brilliant Blue R-250. Autoradiography was performed using an imaging plate (Fujifilm, Tokyo, Japan) and images were obtained with a FLA-5000 Imaging System (Fujifilm).

HIV-1 IN [1] = target: T3, HIV-1 IN (Human immunodeficiency virus type 1 group M subtype B, UniProt P04585); test: Integrase reaction, 3'-processing (3'-P), gel-based; format: biochemical; conditions: gel-based assay
T3 construct: Recombinant full-length IN was expressed in E. coli BL21 pLys; 6xHis; made in house; host or cells: E. coli BL21 pLys
Protocol: (§2) Oligonucleotides. Oligonucleotides were purchased from Integrated DNA Technologies, Inc. (Leuven, Belgium), purified on polyacrylamide gel through electro-elution and dissolve in water. 19T ([…]) and 21B ([…]) correspond to the cleaved and non-cleaved strands specifically recognized by HIV-1 IN. Radiolabeling of 19T at the 5′-end was performed with [γ-^32P] ATP (Perkin-Elmer, Villebon-sur-Yvette, France) using T4 polynucleotide kinase (Promega, Charbonnières-les-Bains, France), according to the manufacturers’ instructions. Unincorporated isotopes were removed using illustra microspin G-25 Columns (Cytiva life sciences, Amersham, Little Chalfont, United Kingdom). DNA duplexes were annealed using an equimolar ratio of the complementary strand 21B, heating to 95 °C, and slow cooling to room temperature.
Integrase reactions. IN reactions were carried out by adding molecules or an equivalent volume of 100% DMSO (dimethyl sulfoxide, used as the drug solvent) to a mixture of 20 nM duplex DNA (19T/21B) and 400 nM IN in 50 mM MOPS pH 7.2, 7.5 mM MgCl2, and 14 mM 2-mercaptoethanol. […] Densitometric analyses were performed using the ImageQuant 5.1 software (GE Healthcare, Chicago, IL, USA) and data analyzed using Prism 6.05 software (GraphPad, San Diego, CA, USA).

HIV-1 IN [2] = target: T3, HIV-1 IN; test: Integrase reaction, strand transfer (ST), gel-based; format: biochemical
Protocol: as §2
Integrase reactions. IN reactions were carried out by adding molecules or an equivalent volume of 100% DMSO (dimethyl sulfoxide, used as the drug solvent) to a mixture of 20 nM duplex DNA (19T/21B) and 400 nM IN in 50 mM MOPS pH 7.2, 7.5 mM MgCl2, and 14 mM 2-mercaptoethanol. Reactions were performed at 37 °C for 1 h and quenched by addition of an equal volume (10 µL) of loading buffer [formamide containing 1% SDS (sodium dodecyl sulfate), 0.25% bromophenol blue, and xylene cyanol]. Reaction products were separated in 16% polyacrylamide denaturing sequencing gels. Dried gels were visualized using a FLA-5000 imaging system (Fujifilm). Densitometric analyses were performed using the ImageQuant 5.1 software (GE Healthcare, Chicago, IL, USA) and data analyzed using Prism 6.05 software (GraphPad, San Diego, CA, USA).

[3] = target: T4, IN's phosphorylation catalyzed by GCN2 (Homo sapiens, UniProt Q9P2K8); test: In vitro phosphorylation assay: phosphorylation of IN catalyzed by GCN2; format: biochemical, human GCN2 / HIV-1 IN; conditions: for inhibition at 100 µM: read-out: decrease (inhibition) in IN phosphorylation; for concentration giving full inhibition of IN phosphorylation: serial dilutions from 300 µM to 137 nM
T4 construct: expressed as a truncated version (192-1024) in fusion after a glutathione S-transferase tag; purchased SignalChem (GCN2); IN made in house in E. coli BL21 pLys E12-11G; host or cells: E. coli BL21 pLys (IN)
T4 sequence (Q9P2K8 192-1024): T2 sequence (Q9P2K8 192-1024)
Protocol: Enzymes. GCN2 was purchased from SignalChem (EIF2AK4, cat. #E12-11G). […] Recombinant full-length IN was expressed in E. coli BL21 pLys (IPTG induction) and purified on a nickel chelating column, as described. Integrity and purity were checked by direct Coomassie coloration of elution fractions on SDS-PAGE before dialysis to remove imidazole.
as §1, with “Phosphorylation of IN (700 nM) was carried out using 25 nM of GCN2 in a reaction buffer containing 10 mM Tris-HCl pH 7.5, 50 mM NaCl, 15 mM MgCl2, 7.5 mM MnCl2, 10 mM DTT, 0.005% Nonidet P-40, 100 µM ATP, 50 µCi/µL of [γ-^32P]-ATP (3000 Ci/mmole, Perkin Elmer).” left out

[4] = 100 µM, dose-response experiment
[5] = single dose of 100 µM, compared to DMSO
[6] = pilot screen, single dose of 100 µM, read-out: inhibition of the IN–GCN2 interaction signal
[7] = pilot screen, single dose of 100 µM

Structure (SMILES): c1nn(C2CCOCC2)cc1Nc1ncc2nnn(-c3ccc4cn[nH]c4c3)c2n1 [A-92]
- doses with a slight impact on IN–GCN2 interaction (IN–GCN2 interaction): above 333 µM
- inhibition at 1000 µM (IN–GCN2 interaction; 1 mM): < 20%
- effect on the IN–GCN2 interaction (IN–GCN2 interaction): did not affect
- IC50 (GCN2; read-out: apparent IC50, GCN2's activation (autophosphorylation)): ~0.2 µM

Structure (SMILES): CCN1C[C@@H](C)n2c(c(O)c3c(=O)n(Cc4ccc(F)c(Cl)c4)nc(C(=O)NC)c32)C1=O [MK-2048]
- effect on the IN–GCN2 interaction (IN–GCN2 interaction): did not affect
- IC50 (IN–GCN2 interaction; read-out: apparent IC50, IN–GCN2 interaction): ~100 µM
- IC50 (HIV-1 IN [1]): 2 µM
- IC50 (HIV-1 IN [2]; gel-based assay, read-out: apparent IC50, inhibition of ST): 0.02 µM

Structure (SMILES): Clc1ccc(C(c2ccccc2Cl)C(Cl)Cl)cc1 (stereo not shown) [NSC38721, Mitotane]
- value (signal) at the highest dose in the dose-response experiment (IN–GCN2 interaction; [4]): 248.5%
- increase in signal (IN–GCN2 interaction) (IN–GCN2 interaction; pilot screen, 100 µM, compared to the DMSO control): 299.9%
- effect on IN strand transfer activity (HIV-1 IN [2]; serial dilutions from 100 µM to 45.7 nM, only IN present): inactive
- inhibition at 100 µM [3, 5]: ~30%

Structure (SMILES): CC1=C(/C=C/C(C)=C/C=C/C(C)=C/C(=O)O)C(C)(C)CCC1 [NSC122758, Tretinoin]
- value (signal) at the highest dose in the dose-response experiment (IN–GCN2 interaction; [4]): 10.5%
- inhibition at 100 µM (IN–GCN2 interaction; 100 µM, dose-response experiment, corresponding to the printed signal, read-out: inhibition at the highest dose in the dose-response experiment): 89.5%
- inhibition at 100 µM (IN–GCN2 interaction; [6]): 87.3%
- decrease (inhibition) in IN phosphorylation [3, 5]: no impact
- decrease in GCN2 auto-phosphorylation (GCN2): no impact

- inhibition at 100 µM [3, 5]: 40%
- decrease in GCN2 auto-phosphorylation (GCN2): no effect
Structure (SMILES): Cc1cn(-c2cc(NC(=O)c3ccc(C)c(Nc4nccc(-c5cccnc5)n4)c3)cc(C(F)(F)F)c2)cn1 [NSC747599, Nilotinib]

- concentration giving full inhibition of IN phosphorylation [3]: 300 µM
- decrease (inhibition) in IN phosphorylation [3, 5]: inhibited
- concentration giving full inhibition of GCN2 auto-phosphorylation (GCN2; serial dilutions from 300 µM to 137 nM): 300 µM
- decrease in GCN2 auto-phosphorylation (GCN2): ~80%
Structure (SMILES): CNCc1ccc(-c2[nH]c3cc(F)cc4c3c2CCNC4=O)cc1 [NSC756644, Rucaparib phosphate]

Structure (SMILES): Cc1ccc(C(=O)Nc2ccc(CN3CCN(C)CC3)c(C(F)(F)F)c2)cc1C#Cc1cnc2cccnn12 [NSC758487, Ponatinib]
- inhibition at 100 µM [3]: > 80%
- concentration giving full inhibition of IN phosphorylation [3]: without reaching full inhibition
- decrease in GCN2 auto-phosphorylation (GCN2): around 35%

Structure (SMILES): CC1(C)CCC(CN2CCN(c3ccc(C(=O)NS(=O)(=O)c4ccc(NCC5CCOCC5)c([N+](=O)[O-])c4)c(Oc4cnc5[nH]ccc5c4)c3)CC2)=C(c2ccc(Cl)cc2)C1 [NSC766270, Venetoclax]
- inhibition at 100 µM (IN–GCN2 interaction; [6]): 93.6%
- decrease (inhibition) in IN phosphorylation [3, 5]: no impact
- decrease in GCN2 auto-phosphorylation (GCN2): no impact

Structure (SMILES): C=CC(=O)Nc1cc(Nc2nccc(-c3cn(C)c4ccccc34)n2)c(OC)cc1N(C)CCN(C)C [NSC779217, Osimertinib]
- inhibition at 100 µM (IN–GCN2 interaction; [6]): 83.5%
- inhibition at 100 µM [3, 5]: ~20%
- decrease in GCN2 auto-phosphorylation (GCN2): around 20%

Structure (SMILES): CCc1c2c(nc3ccc(OC(=O)N4CCC(N5CCCCC5)CC4)cc13)-c1cc3c(c(=O)n1C2)COC(=O)[C@]3(O)CC [irinotecan, Irinotecan hydrochloride]
- inhibition of the IN–GCN2 interaction signal (IN–GCN2 interaction; [7]): no effect

Structure (SMILES): CC[C@@]1(O)C(=O)OCc2c1cc1n(c2=O)Cc2cc3c(CN(C)C)c(O)ccc3nc2-1 [topotecan, Topotecan hydrochloride]
- inhibition of the IN–GCN2 interaction signal (IN–GCN2 interaction; [7]): no effect
